# Experimental data from patent US20200008426A1, “ACTIVE COMPOUND COMBINATIONS” (BAYER AKTIENGESELLSCHAFT, priority 2017, published 2020).
# Values joined by “and” are separate entries in the source; they are usually repeats but may differ in a detail not shown here. Equal entries are not always repeated. Where two headings read alike, the source gives them in different places.
# Tests used:
# Alternaria alternata = assay: In vitro-Test with Alternaria alternata; format: cell-based
# Septoria tritici [1] = assay: In vitro-Test with Septoria tritici; format: cell-based; details: compound alone
# Puccinia triticina = assay: In vivo preventive Puccinia triticina test (wheat); details: 8 days after inoculation
# Description: After the spray coating has been dried, the plants are sprayed with a spore suspension of Puccinia triticina.
# (§1) The test is evaluated 8 days after the inoculation.
# Sphaerotheca fuliginea = assay: In vivo preventive test on Sphaerotheca (cucumbers); details: Table D1, 7 days after inoculation
# Pyricularia oryzae = format: cell-based
# Venturia inaequalis = assay: In vivo preventive test on Venturia (apples); details: 10 days after inoculation
# Description: The test is evaluated 10 days after the inoculation.
# Septoria tritici [2] = assay: In vivo preventive Septoria tritici test (wheat); details: 21 days after inoculation
# Description: After the spray coating has been dried, the plants are sprayed with a spore suspension of Septoria tritici.
# The test is evaluated 21 days after the inoculation.
# [3] = system: fish (Danio rerio) embryos; assay: In vivo ecotoxicity screening test on fish (Danio rerio); details: active compound alone; fish embryos, 96 h, 28.5° C.
# Description: with ECxi the Effect Concentration (EC) of each chemical i (in ppm) causing x % effect on the ecotoxicity test endpoint.
# For each compound combination, the predicted ECx value is calculated. It is then compared to an experimentally measured value. The ratio of predicted versus measured effect for the combination (thereafter called the Model Deviation Ratio or MDR) is then calculated.
# The environmental effect of the compound combinations was measured experimentally in laboratory ecotoxicity screening studies with fish (Danio rerio). […] Mortality was recorded after 96 h for each tested concentration and a reference control. […] Then, the MDR values were calculated.
# • Solvent: 0.5% by weight dimethyl sulfoxide
# This concentrate is then diluted with water to the desired a.i. concentration, leading to a maximal solvent concentration of 0.5% by weight. The compounds alone and the combinations were tested for five increasing concentrations between 0.01 and 1000 ppm a.i., (e.g. 0.1, 1.0, 10 and 100 ppm a.i). For the combinations, compounds A and B were mixed in a weight ratio of 5:1 to 1:5 and five increasing concentrations were tested for each ratio.
# Pyrenophora teres = assay: In vitro-Test with Pyrenophora teres; format: cell-based
# Alternaria solani = assay: In vivo preventive test on Alternaria (tomatoes); details: Alternaria solani, 72 h, read-out: Efficacy in % found
# Description: The plants are then placed in an incubation cabinet at approximately 20° C. and a relative atmospheric humidity of 100%.
# The test is evaluated 3 days after the inoculation.
# Phakopsora pachyrhizi = assay: In vivo preventive test on Phakopsora (soybeans); details: 7 days after inoculation
# Leptosphaeria nodorum = assay: In vivo preventive Leptosphaeria nodorum test (wheat); details: Table G1, 8 days after inoculation
# Description: After the spray coating has been dried, the plants are sprayed with a spore suspension of Leptosphaeria nodorum.
# as §1
smiles,measurement,setting,value
"CC(C)(C)[C@@H](O)[C@@H](Cc1ccc(Cl)cc1)n1cncn1 (racemic) [Example 1.015, paclobutrazol]",Efficacy %,Alternaria alternata; 1 ppm,0%
same,Efficacy %,Septoria tritici [1]; 1 ppm,13%
"CC(C)(C)C(O)(CCc1ccc(Cl)cc1)Cn1cncn1 (stereo not drawn) [Example 1.021, tebuconazole]",Efficacy in % found,Puccinia triticina; 25 ppm a.i.,22%
same,Efficacy in % found,Puccinia triticina; 50 ppm a.i.,78%
same,Efficacy in % found,Puccinia triticina; 100 ppm a.i.,89%
same,Efficacy in % found,Sphaerotheca fuliginea; 2.5 ppm a.i.,37%
same,Efficacy in % found,Sphaerotheca fuliginea; 5 ppm a.i.,69%
same,Efficacy in % found,Sphaerotheca fuliginea; 10 ppm a.i.,83%
same,Efficacy %,Pyricularia oryzae; 0.2 ppm,87%
same,Efficacy %,Pyricularia oryzae; 1 ppm,87% and 89%
same,Efficacy %,Alternaria alternata; 0.04 ppm,19%
same,Efficacy %,Alternaria alternata; 0.2 ppm,24%
same,Efficacy %,Alternaria alternata; 1 ppm,36%
same,Efficacy in % found,"Venturia inaequalis; Table E1, 2.5 ppm a.i.",4%
same,Efficacy in % found,"Venturia inaequalis; Table E1, 5 ppm a.i.",34%
same,Efficacy in % found,"Venturia inaequalis; Table E1, 10 ppm a.i.",44%
same,Efficacy in % found,Septoria tritici [2]; 25 ppm a.i.,0%
same,Efficacy in % found,Septoria tritici [2]; 50 ppm a.i.,0%
same,Efficacy in % found,Septoria tritici [2]; 100 ppm a.i.,0%
same,Ecotoxicity LC50-96 h found,[3],19.7 ppm a.i.
"CON=C(C(=O)OC)c1ccccc1CON=C(C)c1cccc(C(F)(F)F)c1 [Example 3.020, trifloxystrobin]",pest or weed control at 2.5 ppm,"Puccinia triticina; Puccinia triticina, 192 h, Table H1, 2.5 ppm a.i., read-out: Efficacy in % found",0%
same,pest or weed control at 5 ppm,"Puccinia triticina; Puccinia triticina, 192 h, Table H1, 5 ppm a.i., read-out: Efficacy in % found",0%
same,pest or weed control at 10 ppm,"Puccinia triticina; Puccinia triticina, 192 h, Table H1, 10 ppm a.i., read-out: Efficacy in % found",11%
same,Efficacy %,Pyrenophora teres; 5 ppm,6%
same,Efficacy %,Pyricularia oryzae; 5 ppm,98%
same,Efficacy %,Septoria tritici [1]; 5 ppm,90%
same,pest or weed control at 2.5 ppm,"Septoria tritici [2]; Zymoseptoria tritici, 504 h, 2.5 ppm a.i., read-out: Efficacy in % found",29%
same,pest or weed control at 5 ppm,"Septoria tritici [2]; Zymoseptoria tritici, 504 h, 5 ppm a.i., read-out: Efficacy in % found",29%
same,pest or weed control at 10 ppm,"Septoria tritici [2]; Zymoseptoria tritici, 504 h, 10 ppm a.i., read-out: Efficacy in % found",29%
same,Ecotoxicity LC50-96 h found,[3],0.24 ppm a.i.
"COc1ccnc(C(=O)N[C@H]2COC(=O)[C@H](Cc3ccccc3)[C@@H](OC(=O)C(C)C)[C@H](C)OC2=O)c1OCOC(=O)C(C)C [Example 3.025, (3S,6S,7R,8R)-8-benzyl-3-[({3-[(isobutyryloxy)methoxy]-4-methoxypyridin-2-yl}carbonyl)amino]-6-methyl-4,9-dioxo-1,5-dioxonan-7-yl 2-methylpropanoate]",pest or weed control at 37.5 ppm,"Puccinia triticina; Puccinia triticina, 192 h, read-out: Efficacy in % found, Table H1, 37.5 ppm a.i.",22%
same,pest or weed control at 75 ppm,"Puccinia triticina; Puccinia triticina, 192 h, read-out: Efficacy in % found, Table H1, 75 ppm a.i.",67%
same,pest or weed control at 150 ppm,"Puccinia triticina; Puccinia triticina, 192 h, read-out: Efficacy in % found, Table H1, 150 ppm a.i.",89%
same,Efficacy %,Pyrenophora teres; 100 ppm,10%
same,Efficacy %,Pyricularia oryzae; 0.8 ppm,91% and 67%
same,Efficacy %,Pyricularia oryzae; 4 ppm,84% and 85%
same,Efficacy %,Pyricularia oryzae; 20 ppm,100% and 72%
same,pest or weed control at 37.5 ppm,"Septoria tritici [2]; Zymoseptoria tritici, 504 h, read-out: Efficacy in % found, 37.5 ppm a.i.",13%
same,pest or weed control at 150 ppm,"Septoria tritici [2]; Zymoseptoria tritici, 504 h, read-out: Efficacy in % found, 150 ppm a.i.",63%
same,pest or weed control at 5 ppm,Alternaria solani,18%
same,pest or weed control at 10 ppm,Alternaria solani,18%
same,pest or weed control at 20 ppm,Alternaria solani,58%
same,Efficacy in % found,"Phakopsora pachyrhizi; Table C2, 5 ppm a.i.",23%
same,Efficacy in % found,"Phakopsora pachyrhizi; Table C2, 10 ppm a.i.",40%
same,Efficacy in % found,"Phakopsora pachyrhizi; Table C2, 20 ppm a.i.",63%
same,Ecotoxicity LC50-96 h found,[3],1.87 ppm a.i.
"O=C(Nc1ccccc1)N(Cc1ccc(Cl)cc1)C1CCCC1 [Example 4.005, pencycuron]",Efficacy in % found,Puccinia triticina; 62.5 ppm a.i.,0%
same,Efficacy %,Pyrenophora teres; 20 ppm,17%
same,Efficacy %,Pyrenophora teres; 100 ppm,5%
same,Efficacy in % found,Leptosphaeria nodorum; 62.5 ppm a.i.,14%
same,Efficacy in % found,Leptosphaeria nodorum; 125 ppm a.i.,14%
same,Efficacy in % found,Leptosphaeria nodorum; 250 ppm a.i.,29%
same,Efficacy in % found,"Venturia inaequalis; Table E1, 25 ppm a.i.",0%
same,Efficacy in % found,"Venturia inaequalis; Table E1, 50 ppm a.i.",0%
same,Efficacy in % found,"Venturia inaequalis; Table E1, 100 ppm a.i.",4%
same,Efficacy %,Septoria tritici [1]; 20 ppm,8%
same,Efficacy %,Septoria tritici [1]; 100 ppm,0%
same,Efficacy in % found,Septoria tritici [2]; 62.5 ppm a.i.,0%
same,Efficacy in % found,Septoria tritici [2]; 125 ppm a.i.,0%
same,Efficacy in % found,Septoria tritici [2]; 250 ppm a.i.,0%
same,Ecotoxicity LC50-96 h found,[3],>200 ppm a.i.
"COCC(=O)N(c1c(C)cccc1C)C(C)C(=O)OC (stereo not drawn) [Example 12.003, metalaxyl]",Efficacy in % found,Puccinia triticina; 1000 ppm a.i.,30% and 44%
same,Efficacy in % found,Leptosphaeria nodorum; 250 ppm a.i.,29%
same,Efficacy in % found,Leptosphaeria nodorum; 500 ppm a.i.,0%
same,Efficacy in % found,Leptosphaeria nodorum; 1000 ppm a.i.,0%
same,Efficacy in % found,"Venturia inaequalis; Table E2, 50 ppm a.i.",11%
same,Efficacy in % found,"Venturia inaequalis; Table E2, 100 ppm a.i.",11%
same,Efficacy in % found,"Venturia inaequalis; Table E2, 200 ppm a.i.",19%
same,Efficacy in % found,Septoria tritici [2]; 250 ppm a.i.,0%
same,Efficacy in % found,Septoria tritici [2]; 500 ppm a.i.,0%
same,Efficacy in % found,Septoria tritici [2]; 1000 ppm a.i.,0%
same,Efficacy in % found,"Phakopsora pachyrhizi; Table C3, 50 ppm a.i.",0%
same,Efficacy in % found,"Phakopsora pachyrhizi; Table C3, 100 ppm a.i.",0%
same,Efficacy in % found,"Phakopsora pachyrhizi; Table C3, 200 ppm a.i.",23%
same,Ecotoxicity LC50-96 h found,[3],>200 ppm a.i.
"N#Cc1c[nH]cc1-c1cccc2c1OC(F)(F)O2 [Example 13.001, fludioxonil]",pest or weed control at 20 ppm,"Puccinia triticina; Puccinia triticina, 192 h, read-out: Efficacy in % found, 20 ppm a.i.",0%
same,pest or weed control at 40 ppm,"Puccinia triticina; Puccinia triticina, 192 h, read-out: Efficacy in % found, 40 ppm a.i.",0%
same,pest or weed control at 80 ppm,"Puccinia triticina; Puccinia triticina, 192 h, read-out: Efficacy in % found, 80 ppm a.i.",0%
same,pest or weed control at 20 ppm,"Puccinia triticina; Puccinia triticina, 192 h, read-out: Efficacy in % found, Table H1, 20 ppm a.i.",0%
same,pest or weed control at 40 ppm,"Puccinia triticina; Puccinia triticina, 192 h, read-out: Efficacy in % found, Table H1, 40 ppm a.i.",0%
same,pest or weed control at 80 ppm,"Puccinia triticina; Puccinia triticina, 192 h, read-out: Efficacy in % found, Table H1, 80 ppm a.i.",22%
same,Efficacy %,Pyricularia oryzae; 0.2 ppm,82%
same,Efficacy %,Pyricularia oryzae; 1 ppm,87% and 88%
same,Efficacy %,Pyricularia oryzae; 5 ppm,89% and 79%
same,Efficacy in % found,"Venturia inaequalis; Table E1, 5 ppm a.i.",8%
same,Efficacy in % found,"Venturia inaequalis; Table E1, 10 ppm a.i.",4%
same,Efficacy in % found,"Venturia inaequalis; Table E1, 20 ppm a.i.",4%
same,pest or weed control at 20 ppm,"Septoria tritici [2]; Zymoseptoria tritici, 504 h, read-out: Efficacy in % found, 20 ppm a.i.",29%
same,pest or weed control at 40 ppm,"Septoria tritici [2]; Zymoseptoria tritici, 504 h, read-out: Efficacy in % found, 40 ppm a.i.",29%
same,pest or weed control at 80 ppm,"Septoria tritici [2]; Zymoseptoria tritici, 504 h, read-out: Efficacy in % found, 80 ppm a.i.",29%
same,Ecotoxicity LC50-96 h found,[3],0.89 ppm a.i.
"CCCOc1nc2ccc(I)cc2c(=O)n1CCC [Example 13.004, proquinazid]",Efficacy %,Alternaria alternata; 0.8 ppm,0%
same,Efficacy %,Alternaria alternata; 4 ppm,0%
same,Efficacy in % found,Leptosphaeria nodorum; 250 ppm a.i.,0%
same,Efficacy in % found,Leptosphaeria nodorum; 500 ppm a.i.,14%
same,Efficacy in % found,Leptosphaeria nodorum; 1000 ppm a.i.,14%
same,Efficacy in % found,"Venturia inaequalis; Table E1, 12.5 ppm a.i.",0%
same,Efficacy in % found,"Venturia inaequalis; Table E1, 25 ppm a.i.",0%
same,Efficacy in % found,"Venturia inaequalis; Table E1, 50 ppm a.i.",0%
same,Efficacy %,Septoria tritici [1]; 20 ppm,55%
same,Efficacy %,Septoria tritici [1]; 100 ppm,28%
same,Efficacy in % found,Septoria tritici [2]; 250 ppm a.i.,0%
same,Efficacy in % found,Septoria tritici [2]; 500 ppm a.i.,0%
same,Efficacy in % found,Septoria tritici [2]; 1000 ppm a.i.,0%
same,Ecotoxicity LC50-96 h found,[3],9.89 ppm a.i.
"O=C(Cc1ccccc1)N/C(=N\OCC1CC1)c1c(C(F)(F)F)ccc(F)c1F [Example 15.008, cyflufenamid]",Efficacy in % found,Puccinia triticina; 250 ppm a.i.,0%
same,Efficacy in % found,Puccinia triticina; 500 ppm a.i.,0%
same,Efficacy in % found,Puccinia triticina; 1000 ppm a.i.,22%
same,Efficacy %,Pyricularia oryzae; 4 ppm,17%
same,Efficacy %,Pyricularia oryzae; 20 ppm,91%
same,Efficacy in % found,Leptosphaeria nodorum; 250 ppm a.i.,0%
same,Efficacy in % found,Leptosphaeria nodorum; 500 ppm a.i.,0%
same,Efficacy in % found,Leptosphaeria nodorum; 1000 ppm a.i.,0%
same,Efficacy in % found,"Venturia inaequalis; Table E2, 5 ppm a.i.",0%
same,Efficacy in % found,"Venturia inaequalis; Table E2, 10 ppm a.i.",0%
same,Efficacy in % found,"Venturia inaequalis; Table E2, 20 ppm a.i.",4%
same,Efficacy in % found,Septoria tritici [2]; 250 ppm a.i.,14%
same,Efficacy in % found,Septoria tritici [2]; 500 ppm a.i.,29%
same,Efficacy in % found,Septoria tritici [2]; 1000 ppm a.i.,29%
same,Ecotoxicity LC50-96 h found,[3],5.2 ppm a.i.
